Tests used:
[1] = target: T1, EGFR L858R+T790M, endogenous (NCI-H1975) (Homo sapiens, UniProt P00533, L858R/T790M); experiment: pEGFR Y1068 ELISA assay, NCI-H1975 cells; type: cell-based; details: inhibition of phosphorylation of EGFR at Tyr1068; NCI-H1975 NSCLC cells; 2 hr compound incubation
T1 construct: NCI-H1975 (EGFR L858R+T790M, endogenous); host or cells: NCI-H1975
Method: (§1) Phosphorylation of EGFR at Y1068 was measured by PathScan® Phospho-EGF Receptor (Try1068) Sandwich ELISA kit (#7240, Cell Signaling Technology®, Danvers, Mass.). The PathScan® Phospho-EGF Receptor (Tyr1068) Sandwich ELISA Kit is a solid phase sandwich enzyme-linked immunosorbent assay (ELISA) that detects endogenous levels of phospho-EGF Receptor (Tyr1068) protein. […] All cells were cultured according to ATCC recommendations. A549, NCI-H1975, PC9, and NCI-H3255 cells were grown in RPMI media (Invitrogen, Carlsbad, Calif.) supplemented with 10% FBS (Sigma, St Louis, Mo.), and with 1% Penn/Strep (Invitrogen). PC9-DRH cells were grown in RPMI with 10% FBS and 1 μM dacomitinib.
(§2) Cells were plated at 40,000/well in complete culture media (50 μL/well) on the bottom of clear tissue culture treated microtiter plates (#3595, Corning Inc, Corning, N.Y.) and allowed to adhere overnight at 37° C., 5% CO2. The following day, compound dilution plates were prepared in 96 well clear V-bottom 0.5 mL polypropylene block plates (#3956, Corning, Inc). Each compound was prepared as a DMSO stock solution (10 mM). Compounds were tested in duplicate on each plate, with an 11-point serial dilution curve (1:3 dilution). Compound treatment (50 μL) was added from the compound dilution plate to the cell plate. […] Plates were then incubated for 2 hr at 37° C., 5% CO2. For A549 (EGFR wildtype) assay, cells were plated in full-serum (10%) media for 24 hr prior to compound treatment; cells were treated in full serum media as described and then stimulated for 10 min with EGF (40 ng/mL/starvation media, Invitrogen). Immediately prior to the end of the incubation, ice-cold lysis buffer was prepared (1× Cell Lysis Buffer (#9803, Cell Signaling Technology), 1 mM sodium orthovanadate (Na3VO4, #96508, Sigma), 1 mM phenylmethanesulfonyl fluoride (PMSF, 52332, CalBiochem/EMD Chemicals), complete Mini EDTA-free Protease Inhibitor Cocktail Tablet (1 tablet/10 mL, #11836170001, Roche, Indianapolis, Ind.), and PhosSTOP Phosphatase Inhibitor Cocktail Tablet (1 tablet/10 mL, #04906837001, Roche) in pure water. At the end of 2 hr, media was flicked off and cells were washed once with ice-cold 1 mM Na3VO4 in PBS (100 μL/well, Invitrogen). The wash was then flicked off and ice-cold lysis buffer was added to the cells (50 μL/well). The plate was shaken for 20-30 min at 4° C. to completely lyse the cells. Sample diluent (50 μL/well) was added to the ELISA plate, and the lysate (50 μL) was diluted into the sample diluent in each well of the ELISA plate. Plates were sealed and incubated overnight at 4° C. with shaking. The next day, wells were washed four times with 1× Wash Buffer; plates were taped on lint-free paper after the final wash prior to adding Add Detection Antibody (green, 100 μL/well) to each well and incubating for 1 hr at 37° C. After incubation, wells were washed as described. HRP-Linked secondary antibody (red, 100 μL/well) was added to each well and incubated for 30 min at 37° C. After incubation, the wells were washed as described. TMB Substrate (100 μL/well) was added to each well and the plate incubated for 10 min at 37° C. or 30 min at rt maximum. Stop Solution (100 μL/well) was added to each well at the end of the incubation and plates were shaken gently for a few seconds. Absorbance was read at 450 nm within 30 min after addition of Stop Solution on a PerkinElmer EnVision Excite Multilabel Reader Method for Absorbance or on a Molecular Devices SpectraMax^384 Reader for absorbance. Data were analyzed using a four-parameter fit in Microsoft Excel.

[2] = target: T2, EGFR wildtype, endogenous (A549) (Homo sapiens, UniProt P00533); experiment: pEGFR Y1068 ELISA assay, A549 cells; type: cell-based; details: inhibition of phosphorylation of EGFR at Tyr1068; A549 NSCLC cells; 2 hr compound incubation, then stimulated 10 min with EGF (40 ng/mL)
T2 construct: A549 (EGFR wildtype, endogenous); host or cells: A549 (stimulated with EGF)
T2 sequence (P00533 25-1210): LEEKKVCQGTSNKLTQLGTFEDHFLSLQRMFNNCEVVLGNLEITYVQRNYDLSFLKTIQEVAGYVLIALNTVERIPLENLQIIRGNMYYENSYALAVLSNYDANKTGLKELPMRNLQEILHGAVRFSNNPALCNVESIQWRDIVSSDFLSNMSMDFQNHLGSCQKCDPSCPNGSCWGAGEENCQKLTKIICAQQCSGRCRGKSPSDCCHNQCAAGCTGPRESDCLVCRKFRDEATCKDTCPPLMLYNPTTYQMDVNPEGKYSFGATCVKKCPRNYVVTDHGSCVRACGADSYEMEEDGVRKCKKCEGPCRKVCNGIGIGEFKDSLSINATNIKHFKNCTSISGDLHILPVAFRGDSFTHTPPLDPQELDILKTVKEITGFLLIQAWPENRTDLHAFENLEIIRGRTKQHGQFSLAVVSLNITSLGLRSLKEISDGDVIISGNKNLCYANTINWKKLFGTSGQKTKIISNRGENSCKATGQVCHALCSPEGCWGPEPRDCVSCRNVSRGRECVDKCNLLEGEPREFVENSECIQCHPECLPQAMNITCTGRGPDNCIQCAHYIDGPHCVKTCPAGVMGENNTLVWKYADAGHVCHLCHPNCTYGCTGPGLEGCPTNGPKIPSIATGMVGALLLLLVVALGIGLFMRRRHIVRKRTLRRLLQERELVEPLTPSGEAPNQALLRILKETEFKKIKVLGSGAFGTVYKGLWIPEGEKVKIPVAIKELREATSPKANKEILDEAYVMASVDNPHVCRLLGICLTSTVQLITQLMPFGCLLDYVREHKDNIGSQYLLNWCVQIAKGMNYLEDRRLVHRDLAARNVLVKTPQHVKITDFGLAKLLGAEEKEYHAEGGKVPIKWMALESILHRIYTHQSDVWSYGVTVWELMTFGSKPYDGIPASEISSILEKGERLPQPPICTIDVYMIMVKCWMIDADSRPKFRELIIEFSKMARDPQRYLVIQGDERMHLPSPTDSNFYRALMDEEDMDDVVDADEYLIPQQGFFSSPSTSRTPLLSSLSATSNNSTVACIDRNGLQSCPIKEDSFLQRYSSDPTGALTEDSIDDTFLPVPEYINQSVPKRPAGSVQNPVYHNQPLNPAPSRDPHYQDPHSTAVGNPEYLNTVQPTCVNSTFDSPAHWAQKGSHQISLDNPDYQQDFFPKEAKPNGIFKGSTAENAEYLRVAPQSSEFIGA
Method: as §1, §2

T1 sequence (P00533 25-1210 T790M/L858R): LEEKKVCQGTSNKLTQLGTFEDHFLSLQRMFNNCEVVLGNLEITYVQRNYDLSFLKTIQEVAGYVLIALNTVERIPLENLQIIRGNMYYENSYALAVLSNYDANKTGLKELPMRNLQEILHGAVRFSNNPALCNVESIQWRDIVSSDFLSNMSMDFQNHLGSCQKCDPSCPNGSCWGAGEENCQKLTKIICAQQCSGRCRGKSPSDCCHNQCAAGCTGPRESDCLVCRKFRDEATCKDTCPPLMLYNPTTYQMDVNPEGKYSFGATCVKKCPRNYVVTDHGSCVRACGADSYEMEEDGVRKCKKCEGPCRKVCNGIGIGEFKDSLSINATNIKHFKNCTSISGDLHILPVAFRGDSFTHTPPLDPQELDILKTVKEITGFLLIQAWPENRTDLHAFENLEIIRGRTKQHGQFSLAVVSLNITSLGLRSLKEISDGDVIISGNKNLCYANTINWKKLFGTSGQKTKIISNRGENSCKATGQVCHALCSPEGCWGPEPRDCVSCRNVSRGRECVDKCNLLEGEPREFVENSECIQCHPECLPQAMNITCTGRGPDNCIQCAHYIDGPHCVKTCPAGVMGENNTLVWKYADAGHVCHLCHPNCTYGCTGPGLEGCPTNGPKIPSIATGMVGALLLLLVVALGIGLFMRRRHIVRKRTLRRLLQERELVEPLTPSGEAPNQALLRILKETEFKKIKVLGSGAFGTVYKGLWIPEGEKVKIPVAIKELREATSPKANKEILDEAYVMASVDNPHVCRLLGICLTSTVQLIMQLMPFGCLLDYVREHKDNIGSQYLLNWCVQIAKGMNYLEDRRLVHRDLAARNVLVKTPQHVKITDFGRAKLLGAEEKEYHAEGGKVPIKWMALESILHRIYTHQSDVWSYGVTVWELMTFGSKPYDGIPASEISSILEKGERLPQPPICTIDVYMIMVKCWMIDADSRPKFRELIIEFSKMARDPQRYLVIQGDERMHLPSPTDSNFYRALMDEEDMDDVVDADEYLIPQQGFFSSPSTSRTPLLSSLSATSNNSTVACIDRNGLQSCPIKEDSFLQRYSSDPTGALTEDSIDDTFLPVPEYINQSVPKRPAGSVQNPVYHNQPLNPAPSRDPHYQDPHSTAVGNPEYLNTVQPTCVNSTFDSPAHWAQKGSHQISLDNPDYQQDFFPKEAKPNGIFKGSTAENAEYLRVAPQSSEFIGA

IC50 [1] | IC50 [2] | SMILES
32 nM | 1220 nM | C=CC(=O)N[C@@H]1CN(c2nc(Nc3cn(CC(C)O)nc3OC)c3ncn(CC)c3n2)C[C@H]1F (stereo partly drawn) [Example 86, N-((3R,4R)-1-(9-ethyl-6-((1-(2-hydroxypropyl)-3-methoxy-1H-pyrazol-4-yl)amino) -9H-purin-2-yl)-4-fluoropyrrolidin-3-yl)acrylamide]
1040 nM | ≥ 10000 nM | C=CC(=O)N1CCCC(c2nc(Nc3cnn(C)c3)c3ncn(C(C)C)c3n2)C1 (single isomer, unassigned) [Example 6, 1-(3-(9-isopropyl-6-((1-methyl-1H-pyrazol-4-yl)amino)-9H-purin-2-yl)piperidin-1-yl)prop-2-en-1-one]
161 nM | 2670 nM | C=CC(=O)N1C[C@@H]2CN(c3nc(Nc4cnn(C)c4)c4ncn(C)c4n3)C[C@@H]2C1 [Example 34, 1-((cis)-5-(9-methyl-6-((1-methyl-1H-pyrazol-4-yl)amino)-9H-purin-2-yl)hexahydropyrrolo[3,4-c]pyrrol-2(1H)-yl)prop-2-en-1-one]
29 nM | 387 nM | C=CC(=O)N1CC[C@@H](Nc2nc(Nc3ccc(N4CCN(C)CC4)cc3)c3ncn(C(C)C)c3n2)C1 [Example 27, (R)-1-(3-((9-isopropyl-6-((4-(4-methylpiperazin-1-yl)phenyl)amino)-9H-purin-2-yl)amino)pyrrolidin-1-yl)prop-2-en-1-one]
14 nM |  | C=CC(=O)N[C@@H]1CN(c2nc(Nc3ccc(N4CCN(C)CC4)cc3)c3ncn(C(C)C)c3n2)C[C@H]1OC (relative stereo) [Example 47, N-((trans)-1-(9-isopropyl-6-((4-(4-methylpiperazin-1-yl)phenyl)amino)-9H-purin-2-yl)-4-methoxypyrrolidin-3-yl)acrylamide]
20 nM | 167 nM | C=CC(=O)N[C@@H]1CN(c2nc(Nc3cnn(C4CCN(C)CC4)c3)c3ncn(C(C)C)c3n2)C[C@H]1F [Example 71, N-((3R,4R)-4-fluoro-1-(9-isopropyl-6-((1-(1-methylpiperidin-4-yl)-1H-pyrazol-4-yl)amino)-9H-purin-2-yl)pyrrolidin-3-yl)acrylamide]
82 nM | 3850 nM | C=CC(=O)N1C[C@H](Nc2nc(Nc3cnn(C)c3)c3ncn(C(C)C)c3n2)[C@@H](F)C1 (single isomer, unassigned) [Example 30, 1-((trans*)-3-fluoro-4-((9-isopropyl-6-((1-methyl-1H-pyrazol-4-yl)amino)-9H-purin-2-yl)amino)pyrrolidin-1-yl)prop-2-en-1-one]
162 nM | 2840 nM | C=CC(=O)N[C@H]1CCN(c2nc(Nc3cn(C)nc3OC)c3ncn(C(C)C)c3n2)C1 [Example 11, (S)-N-(1-(9-isopropyl-6-((3-methoxy-1-methyl-1H-pyrazol-4-yl)amino)-9H-purin-2-yl)pyrrolidin-3-yl)acrylamide]
162 nM | 4050 nM | C=CC(=O)N1CCC(Oc2nc(Nc3cnn(C)c3)c3ncn(C(C)C)c3n2)C1 (stereo in doubt) [Example 59, (R)-1-(3((9-isopropyl-6-((1-methyl-1H-pyrazol-4-yl)amino)-9H-purin-2-yl)oxy)pyrrolidin-1-yl)prop-2-en-1-one]
8 nM | 90 nM | C=CC(=O)N[C@H]1CN(c2nc(Nc3cnn(CCN(C)C)c3)c3ncn(C(C)C)c3n2)C[C@@H]1F [Example 67, N-((3S,4S)-1-(6-((1-(2-(dimethylamino)ethyl)-1H-pyrazol-4-yl)amino)-9-isopropyl-9H-purin-2-yl)-4-fluoropyrrolidin-3-yl)acrylamide]
39 nM | 1140 nM | C=CC(=O)N(C)C1CN(c2nc(Nc3ccc(N4CCN(C)CC4)cc3)c3ncn(C(C)C)c3n2)C1 [Example 24, N-(1-(9-isopropyl-6-((4-(4-methylpiperazin-1-yl)phenyl)amino)-9H-purin-2-yl)azetidin-3-yl)-N-methylacrylamide]
76 nM | 1350 nM | C=CC(=O)N(C)C1CN(c2nc(Nc3cnn(C)c3)c3ncn(C(C)C)c3n2)C1 [Example 31, N-(1-(9-isopropyl-6((1-methyl-1H-pyrazol-4-yl)amino)-9H-purin-2-yl)azetidin-3-yl)-N-methylacrylamide]
317 nM | 1390 nM | C=CC(=O)N[C@H]1CCN(c2nc(Nc3cnn(C)c3)c3ncn(C4(C)CC4)c3n2)C1 [Example 60, (S)-N-(1-(6-((1-methyl-1H-pyrazol-4-yl)amino)-9-(1-methylcyclopropyl)-9H-purin-2-yl)pyrrolidin-3-yl)acrylamide]
9 nM | 92 nM | C=CC(=O)N1C[C@@H]2CN(c3nc(Nc4cnn(C)c4)c4ncn(C(C)C)c4n3)C[C@]2(F)C1 (relative stereo) [Example 73, 1-(cis-3a-fluoro-5-(9-isopropyl-6-((1-methyl-1H-pyrazol-4-yl)amino)-9H-purin-2-yl)hexahydropyrrolo[3,4-c]pyrrol-2(1H)-yl)prop-2-en-1-one]
29 nM | 609 nM | C=CC(=O)N[C@@H]1CN(c2nc(Nc3cnn(C4CCN(C)CC4)c3)c3ncn(C(C)(C)C)c3n2)C[C@H]1F [Example 70, N-((3R,4R)-1-(9-(tert-butyl)-6-((1-(1-methylpiperidin-4-yl)-1H-pyrazol-4-yl)amino) -9H-purin-2-yl)-4-fluoropyrrolidin-3-yl)acrylamide]
65 nM | 1230 nM | C=CC(=O)N1CC(C)(Nc2nc(Nc3cnn(C)c3)c3ncn(C(C)C)c3n2)C1 [Example 32, 1-(3-((9-isopropyl-6-((1-methyl-1H-pyrazol-4-yl)amino)-9H-purin-2-yl)amino)-3-methylazetidin-1-yl)prop-2-en-1-one]
285 nM | ≥ 10000 nM | C=CC(=O)N[C@H]1C[C@H](Oc2nc(Nc3ccc(N4CCN(C)CC4)cc3)c3ncn(C(C)C)c3n2)C1 [Example 14, N-((trans)-3-((9-isopropyl-6-((4-(4-methylpiperazin-1-yl)phenyl)amino)-9H-purin-2-yl)oxy)cyclobutyl)acrylamide]
391 nM | 7610 nM | C=CC(=O)N[C@H]1CCN(c2nc(Nc3cn(C)nc3C)c3ncn(C(C)C)c3n2)C1 [Example 37, (S)-N-(1-(6-((1,3-dimethyl-1H-pyrazol-4-yl)amino)-9-isopropyl-9H-purin-2-yl)pyrrolidin-3-yl)acrylamide]
48 nM | 723 nM | C=CC(=O)N(C)[C@H]1C[C@H](Nc2nc(Nc3ccc(N4CCN(C)CC4)cc3)c3ncn(C(C)C)c3n2)C1 [Example 28, N-((trans)-3-((9-isopropyl-6-((4-(4-methylpiperazin-1-yl)phenyl)amino)-9H-purin-2-yl)amino)cyclobutyl)-N-methylacrylamide]
37 nM | 712 nM | C=CC(=O)N[C@H]1CCN(c2nc(Nc3cnn([C@H]4CCN(C)C4)c3)c3ncn(C(C)C)c3n2)C1 [Example 69, N—((S)-1-(9-isopropyl-6-((1-((S)-1-methylpyrrolidin-3-yl)-1H-pyrazol-4-yl)amino) -9H-purin-2-yl)pyrrolidin-3-yl)acrylamide]
204 nM | 4360 nM | C=CC(=O)N[C@H]1CCN(c2nc(Nc3ccc(N4CCN(C)CC4)cc3)c3ncn(C(C)CO)c3n2)C1 (stereo partly drawn) [Example 48, N-((3S)-1-(9-(1-hydroxypropan-2-yl)-6-((4-(4-methylpiperazin-1-yl)phenyl)amino) -9H-purin-2-yl)pyrrolidin-3-yl)acrylamide]
39 nM | 1420 nM | C=CC(=O)NC1CN(c2nc(Nc3ccc(N4CCN(C)CC4)cc3)c3ncn(C(C)C)c3n2)C1 [Example 23, N-(1-(9-isopropyl-6-((4-(4-methylpiperazin-1-yl)phenyl)amino)-9H-purin-2-yl)azetidin-3-yl)acrylamide]
58 nM | 983 nM | C=CC(=O)N1C[C@H](Nc2nc(Nc3cnn(C)c3)c3ncn(C(C)C)c3n2)[C@@H](F)C1 (relative stereo) [Example 58, 1-((trans)-3-fluoro-4-((9-isopropyl-6-((1-methyl-1H-pyrazol-4-yl)amino)-9H-purin-2-yl)amino)pyrrolidin-1-yl)prop-2-en-1-one]
25 nM | 682 nM | C=CC(=O)N1CC[C@@H](Oc2nc(Nc3ccc(N4CCN(C)CC4)cc3)c3ncn(C(C)C)c3n2)C1 [Example 26, (R)-1-(3-((9-isopropyl-6-((4-(4-methylpiperazin-1-yl)phenyl)amino)-9H-purin-2-yl)oxy)pyrrolidin-1-yl)prop-2-en-1-one]
55 nM | 117 nM | C=CC(=O)N[C@H]1CCN(c2nc(Nc3ccc(N4CCN(C)CC4)cc3)c3ncn(C4CCC4)c3n2)C1 [Example 15]
846 nM | ≥ 10000 nM | C=CC(=O)NC1(C)CCN(c2nc(Nc3ccc(N4CCN(C)CC4)cc3)c3ncn(C(C)C)c3n2)C1 (stereo not shown) [Example 10, N-(1-(9-isopropyl-6-((4-(4-methylpiperazin-1-yl)phenyl)amino)-9H-purin-2-yl)-3-methylpyrrolidin-3-yl)acrylamide]
11 nM | 95 nM | C=CC(=O)N[C@H]1CCN(c2nc(Nc3ccc(N4CCN(C)CC4)cc3)c3ncn(CC)c3n2)C1 [Example 35, (S)-N-(1-(9-ethyl-6-((4-(4-methylpiperazin-1-yl)phenyl)amino)-9H-purin-2-yl)pyrrolidin-3-yl)acrylamide]
132 nM | 3450 nM | C=CC(=O)N[C@@H]1CN(c2nc(Nc3cn(CC(C)O)nc3OC)c3ncn(C)c3n2)C[C@H]1F (stereo partly drawn) [Example 83, N-((3R,4R)-4-fluoro-1-(6-((1-(2-hydroxypropyl)-3-methoxy-1H-pyrazol-4-yl)amino)-9-methyl-9H-purin-2-yl)pyrrolidin-3-yl)acrylamide]

— patent US9290496B2, “Purine derivatives” (PFIZER INC., priority 2013, dated 2016)
